Assays:
Assay type in all cases: cell-based, human
[1] = tested on: BIN3; assay: BIN3 expression by Western blot / real-time PCR
Procedure: Mayo PDX cells were serum starved overnight. Following treatment for specific time, cells were harvested and lysed. The human glioblastoma tissues were ground in liquid nitrogen and then were lysed. […] TGFα antibody was from R&D system.
Total RNA from cells was extracted by TRIzol Reagent (Ambion). […] The expression of each gene was normalized to GAPDH as a reference. The following primers were used.
Specifically, Western blot analysis of BIN3 in PDXs in response to EGF was performed (FIG. 4A). Cells were serum starved overnight and treated with 50 ng/ml EGF for 48 hours. BIN3 mRNA levels in EGF-treated PDXs were determined by real-time PCR (FIG. 7B). […] Cells were treated with BIN3 or scrambled siRNA for 48 hours, transfected cells were treated with or without 50 ng/ml EGF for 24 hours. Similar experiments were conducted in GBM6 and GBM22 (FIG. 7D and FIG. 7E). Referring to FIG. 7F, knockdown efficiency of BIN3 siRNA was analyzed by Western blotting. […] Cells were transiently transfected with vector expressing BIN3 for 48 hours followed by invasion assay. […] EGR1 mRNA levels in GBM12 and GBM6 after EGF treatment were determined by real-time PCR (RT-PCR) (FIG. 7I). […] A similar experiment was performed in GBM6 (FIG. 7L). […] A similar experiment was performed in GBM6 (FIG. 7N). Knockdown efficiency of EGR-1 siRNA was analyzed by Western blotting (FIG. 7O). The Western blot images are representative of three independent biological replicates. Actin served as loading control. Data are represented as mean±SEM from three independent experiments. * P<0.05, **P<0.01, unpaired two-tailed t-test.

[2] = tested on: Mayo PDX cells; assay: Matrigel invasion assay
Procedure: Invasion status of cells was tested with Matrigel Boyden chamber assays (Fisher). 1×10^5 cells were plated on BD BioCoat Matrigel invasion chambers. 24 hours after treatment with drugs, invaded cells were stained with the HEMA-3 kit (Fisher). Invaded cells were counted in 4-5 random fields.
An equal number of cells (5×10^4) were seeded on Matrigel coated inserts, and were untreated (control vehicle) or stimulated with 50 ng/ml EGF for 24 hours, cells invading to the other side of the membrane were counted and presented as percentage cell invasion. […] A similar invasion assay was conducted on GBM26 cells (FIG. 2D). […] Cells were transfected with EGFR or scrambled siRNA for 48 hours before the invasion assay. A similar invasion assay was performed on GBM6 (FIG. 2G). […] Cells were transiently transfected with empty or EGFR wildtype (EGFRwt) overexpressing vector, and invasion assay was performed after 48 hours after transfection. […] Cells were treated with or without 50 ng/ml EGF for 48 hours before the assay. The Western blot images are representative of three independent biological replicates. Actin served as loading control. Data are represented as mean±SEM from three independent experiments. *P<0.05, **P<0.01, n.s. not significant, unpaired two-tailed Student's t-test.
FIG. 3C and FIG. 3D show the results of a Matrigel invasion assay of EGFR siRNA knockdown in GBM12 and GBM6 in response to EGF. Cells were treated with EGFR or scrambled siRNA for 48 hours, transfected cells were seeded on Matrigel coated inserts and were treated with or without 50 ng/ml EGF for 24 hours. […] Cells were transiently transfected with EGFRvIII expression or empty vector, invasion assay was performed 48 hours after transfection. […] Western blot images are representative of three independent biological replicates. Actin served as a loading control. Data are represented as mean±SEM from three independent experiments. […], **P<0.01, ***P<0.001, n.s. not significant, unpaired two-tailed t-test.

[3] = tested on: DOCK7 and BIN3; assay: Co-immunoprecipitation of BIN3 and DOCK7; settings: 24 hours
Procedure: Cells were treated with 50 ng/ml EGF for 24 hours, BIN3 (sc-514396AC, Santa Cruz Biotechnology) or mouse IgG antibodies were incubated with whole cell lysates overnight at 4° C., and the mixtures were then incubated with 40 μl protein A/G slurry beads (Sigma) for 2 hours at 4° C. Beads were washed three times with lysis buffer, and immunoprecipitates were boiled in loading buffer for 5 min, subjected to SDS-PAGE followed by Coomassie stain. Bands were cut from the gel and submitted for Mass Spectrometry Facility, UTSW, Dallas. To identify BIN3 and DOCK7 complexes in PDXs upon EGF treatment, cell lysates were immunoprecipitated with DOCK7 antibody or BIN3 antibody, and analyzed by Western blot using BIN3 antibody.
Referring to FIG. 9A-S, BIN3 reduces invasion by interacting with DOCK7. Heat map of spectral counts of the top BIN3 interacting proteins identified by mass spectrometry in GBM12 treated with EGF (50 ng/ml) is shown in FIG. 9A. Western blot analysis of immunoprecipitated extracts from EGF-treated GBM12, GBM6, and GBM26 is illustrated in FIG. 9B. Cell lysates from cells treated with EGF (50 ng/ml) or control vehicle for 24 hours were immunoprecipitated by DOCK7 antibody, followed by Western blot for BIN3. Western blot analysis of BIN3 antibody immunoprecipitated extracts from GBM12, GBM6, and GBM26 24 hours after EGF or vehicle treatment is illustrated in FIG. 9C. […]

Which “upregulation of BIN3” value ([1]; GBM39 and GBM44 (high endogenous EGFR ligand, high BIN3), tofacitinib 1 μM, 48 hours) does the source give for `C[C@@H]1CCN(C(=O)CC#N)C[C@@H]1N(C)c1ncnc2[nH]ccc12` [tofacitinib] here?
Its value is “do not respond”.

And the “upregulation of BIN3” value ([1]; GBM39 with HBEGF silenced, tofacitinib, 48 hours)?
The value was “could now upregulate BIN3”.

What about the “BIN3 mRNA level” value ([1]; tofacitinib 1 μM, 24 hours, PDXs) of the same compound?
The value was “upregulates BIN3 at the mRNA level”.

What about the BIN3 protein level ([1]; tofacitinib 1 μM, 48 hours, multiple PDX lines) of the same compound?
Its BIN3 protein level is “strongly upregulated”.

And the BIN3 level ([1]; tofacitinib in cells treated with a saturating concentration of EGF, 48 hours, GBM12 and GBM6)?
The BIN3 level was “did not induce a further increase”.

And the “responsiveness in invasion assay” value ([2]; GBM39 with HBEGF silenced vs. GBM39 control, tofacitinib 1 μM)?
The value was “more responsive”.

What about the cell invasion ([2]; GBM44 with HB-EGF siRNA knockdown, tofacitinib 1 μM) of the same compound?
Its cell invasion is “inhibits invasion”.

What about the cell invasion ([2]; tofacitinib 1 μM, 24 hours, multiple PDX lines) of the same compound?
Its cell invasion is “inhibited invasiveness”.

Which results are given for “EGF: Recombinant human EGF (AF-100) from Peprotech; EGFR ligand”?
BIN3 protein level ([1]; EGF 50 ng/ml, 48 hours, Mayo PDX lines, Western blot): robust increase; BIN3 mRNA level ([1]; EGF-treated PDXs, real-time PCR): regulated by EGF at the mRNA level; cell invasion ([2]; EGF 50 ng/ml, 24 hours, multiple Mayo PDX explant cultures expressing EGFRwt or EGFRvIII plus EGFRwt): suppressed invasion; cell invasion ([2]; EGFR overexpressing PDX cells exposed to EGF): invasion is suppressed; physical association between DOCK7 and BIN3 ([3]; EGF 50 ng/ml, GBM12, GBM6, GBM26): significantly induced a physical association

HGF: the ligand for Met was tested. Which BIN3 levels ([1]; HGF 20 ng/ml, 24 hours) did it give?
The BIN3 levels was “does not affect BIN3 levels”.

And the cell invasion ([2]; HGF 20 ng/ml, 24 hours, GBM12 and GBM6)?
The cell invasion was “increased invasiveness”.

And the “association between BIN3 and DOCK7” value ([3]; HGF 20 ng/ml, GBM12 and GBM6)?
Its value is “not detected”.
